Source: patent publication US5326867A, “Pradimic acids, amides, and pradimicin derivatives” (Bristol-Myers Squibb Company, priority 1992, dated 1994)
Values after ≈ are worked out from the molar mass of the structure shown.

Tests used:
Assay type in all cases: cell-based
Aspergillus fumigatus = assay: In vitro antifungal activity, MIC by serial agar dilution method; conditions: Sabouraud dextrose agar, 10^6 cells/ml, 40 hours at 28° C.
Experimental: (§1) Antifungal activities of representative compounds of the present invention were evaluation in vitro. The minimum inhibitory concentrations (MICs) against various fungi were determined by serial agar dilution method using Sabouraud dextrose agar. Thus, approximately 0.003 ml of fungal suspension containing 10^6 cells/ml was applied to the surface of agar plates containing the test antibiotics.

Cryptococcus neoformans = assay: as above; conditions: Sabouraud dextrose agar, 10^6 cells/ml, 40 hours at 28° C.
Experimental: as §1

[1] = tested on: Trichophyton mentagrophytes; assay: as above; conditions: Sabouraud dextrose agar, 10^6 cells/ml, 40 hours at 28° C.
Experimental: as §1

Candida albicans = assay: as above; conditions: Sabouraud dextrose agar, 10^6 cells/ml, 40 hours at 28° C.
Experimental: as §1

fungi = assay: Antifungal activity of synthesized pradimicin A compared with naturally occurring pradimicin A; conditions: semisynthetic product of Example 12 vs naturally occurring pradimicin A

SMILES	MIC (Aspergillus fumigatus)	MIC (Cryptococcus neoformans)	MIC [1]	MIC (Candida albicans)	antifungal activity (fungi)
CN[C@@H]1[C@H](O[C@@H]2OC[C@@H](O)[C@H](O)[C@H]2O)[C@@H](O)[C@H](O[C@H]2c3cc(C)c(C(=O)N[C@H](Cc4ccc(O)c(O)c4)C(=O)O)c(O)c3-c3c(cc4c(c3O)C(=O)c3cc(OC)cc(O)c3C4=O)[C@@H]2O)O[C@@H]1C [Example 13, 15-Desalanyl-15-[D-(3,4-dihydroxyphenyl)alanyl] pradimicin A]	> 50 µg/mL	25 µg/mL (≈ 26.3 µM)	50 µg/mL (≈ 52.7 µM)	> 50 µg/mL	–
CN[C@@H]1[C@H](O[C@@H]2OC[C@@H](O)[C@H](O)[C@H]2O)[C@@H](O)[C@H](O[C@H]2c3cc(C)c(C(=O)N[C@@H](CO)C(=O)O)c(O)c3-c3c(cc4c(c3O)C(=O)c3cc(OC)cc(O)c3C4=O)[C@@H]2O)O[C@@H]1C [Example 14]	> 100 µg/mL	12.5 µg/mL (≈ 14.6 µM)	> 100 µg/mL	12.5 µg/mL (≈ 14.6 µM)	–
CN[C@@H]1[C@H](O[C@@H]2OC[C@@H](O)[C@H](O)[C@H]2O)[C@@H](O)[C@H](O[C@H]2c3cc(C)c(C(=O)N[C@H](CN)C(=O)O)c(O)c3-c3c(cc4c(c3O)C(=O)c3cc(OC)cc(O)c3C4=O)[C@@H]2O)O[C@@H]1C [Example 15]	6.3 µg/mL (≈ 7.36 µM)	6.3 µg/mL (≈ 7.36 µM)	6.3 µg/mL (≈ 7.36 µM)	25 µg/mL (≈ 29.2 µM)	–
CN[C@@H]1[C@H](O[C@@H]2OC[C@@H](O)[C@H](O)[C@H]2O)[C@@H](O)[C@H](O[C@H]2c3cc(C)c(C(=O)N[C@H](CC(=O)O)C(=O)O)c(O)c3-c3c(cc4c(c3O)C(=O)c3cc(OC)cc(O)c3C4=O)[C@@H]2O)O[C@@H]1C [Example 16]	50 µg/mL (≈ 56.5 µM)	6.3 µg/mL (≈ 7.12 µM)	12.5 µg/mL (≈ 14.1 µM)	12.5 µg/mL (≈ 14.1 µM)	–
CN[C@@H]1[C@H](O[C@@H]2OC[C@@H](O)[C@H](O)[C@H]2O)[C@@H](O)[C@H](O[C@H]2c3cc(C)c(C(=O)NC(C(=O)O)C(F)(F)F)c(O)c3-c3c(cc4c(c3O)C(=O)c3cc(OC)cc(O)c3C4=O)[C@@H]2O)O[C@@H]1C (stereo partly drawn) [Example 17]	50 µg/mL (≈ 55.9 µM)	3.1 µg/mL (≈ 3.46 µM)	> 100 µg/mL	> 100 µg/mL	–
CN[C@@H]1[C@H](O[C@@H]2OC[C@@H](O)[C@H](O)[C@H]2O)[C@@H](O)[C@H](O[C@H]2c3cc(C)c(C(=O)N[C@H](Cc4ccccc4)C(=O)O)c(O)c3-c3c(cc4c(c3O)C(=O)c3cc(OC)cc(O)c3C4=O)[C@@H]2O)O[C@@H]1C [Example 18]	6.3 µg/mL (≈ 6.87 µM)	1.6 µg/mL (≈ 1.75 µM)	12.5 µg/mL (≈ 13.6 µM)	> 100 µg/mL	–
CN[C@@H]1[C@H](O[C@@H]2OC[C@@H](O)[C@H](O)[C@H]2O)[C@@H](O)[C@H](O[C@H]2c3cc(C)c(C(=O)N[C@H](Cc4cnc[nH]4)C(=O)O)c(O)c3-c3c(cc4c(c3O)C(=O)c3cc(OC)cc(O)c3C4=O)[C@@H]2O)O[C@@H]1C [Example 19]	50 µg/mL (≈ 55.1 µM)	12.5 µg/mL (≈ 13.8 µM)	12.5 µg/mL (≈ 13.8 µM)	> 50 µg/mL	–
CN[C@@H]1[C@H](O[C@@H]2OC[C@@H](O)[C@H](O)[C@H]2O)[C@@H](O)[C@H](O[C@H]2c3cc(C)c(C(=O)NCc4nnn[nH]4)c(O)c3-c3c(cc4c(c3O)C(=O)c3cc(OC)cc(O)c3C4=O)[C@@H]2O)O[C@@H]1C [Example 20]	3.1 µg/mL (≈ 3.64 µM)	3.1 µg/mL (≈ 3.64 µM)	3.1 µg/mL (≈ 3.64 µM)	6.3 µg/mL (≈ 7.4 µM)	–
CN[C@@H]1[C@H](O[C@@H]2OC[C@@H](O)[C@H](O)[C@H]2O)[C@@H](O)[C@H](O[C@H]2c3cc(C)c(C(=O)N[C@H](CCCCN)C(=O)O)c(O)c3-c3c(cc4c(c3O)C(=O)c3cc(OC)cc(O)c3C4=O)[C@@H]2O)O[C@@H]1C [Example 21]	6.3 µg/mL (≈ 7.02 µM)	6.3 µg/mL (≈ 7.02 µM)	6.3 µg/mL (≈ 7.02 µM)	25 µg/mL (≈ 27.8 µM)	–
CCNC(=O)SC[C@@H](NC(=O)c1c(C)cc2c(c1O)-c1c(cc3c(c1O)C(=O)c1cc(OC)cc(O)c1C3=O)[C@H](O)[C@H]2O[C@@H]1O[C@H](C)[C@H](NC)[C@H](O[C@@H]2OC[C@@H](O)[C@H](O)[C@H]2O)[C@H]1O)C(=O)O [Example 23]	3.1 µg/mL (≈ 3.28 µM)	3.1 µg/mL (≈ 3.28 µM)	12.5 µg/mL (≈ 13.2 µM)	25 µg/mL (≈ 26.5 µM)	–
COc1cc(O)c2c(c1)C(=O)c1c(cc3c(c1O)-c1c(cc(C)c(C(=O)N[C@@H](C(=O)O)[C@H](C)O)c1O)[C@H](O[C@@H]1O[C@H](C)[C@H](O)[C@H](O[C@@H]4OC[C@@H](O)[C@H](O)[C@H]4O)[C@H]1O)[C@H]3O)C2=O [Example 27, 15-Desalanyl-15-(D-threonyl) -4'-desmethylamino-4'-hydroxypradimicin A]	12.5 µg/mL (≈ 14.6 µM)	6.3 µg/mL (≈ 7.34 µM)	12.5 µg/mL (≈ 14.6 µM)	12.5 µg/mL (≈ 14.6 µM)	–
COc1cc(O)c2c(c1)C(=O)c1c(cc3c(c1O)-c1c(cc(C)c(C(=O)N[C@H](CSSC[C@@H](N)C(=O)O)C(=O)O)c1O)[C@H](O[C@@H]1O[C@H](C)[C@H](O)[C@H](O[C@@H]4OC[C@@H](O)[C@H](O)[C@H]4O)[C@H]1O)[C@H]3O)C2=O [Example 29]	6.3 µg/mL (≈ 6.44 µM)	3.1 µg/mL (≈ 3.17 µM)	12.5 µg/mL (≈ 12.8 µM)	6.3 µg/mL (≈ 6.44 µM)	–
COc1cc(O)c2c(c1)C(=O)c1c(cc3c(c1O)-c1c(cc(C)c(C(=O)N[C@@H](CO)C(=O)O)c1O)[C@H](O[C@@H]1O[C@H](C)[C@H](O)[C@H](O[C@@H]4OC[C@@H](O)[C@H](O)[C@H]4O)[C@H]1O)[C@H]3O)C2=O [Example 30]	> 100 µg/mL	50 µg/mL (≈ 59.3 µM)	> 100 µg/mL	12.5 µg/mL (≈ 14.8 µM)	–
COc1cc(O)c2c(c1)C(=O)c1c(cc3c(c1O)-c1c(cc(C)c(C(=O)N[C@H](C)C(=O)O)c1O)[C@H](O[C@@H]1O[C@H](C)[C@H](O)[C@H](O[C@@H]4OC[C@@H](O)[C@H](O)[C@H]4O)[C@H]1O)[C@H]3O)C2=O [Example 31]	3.1 µg/mL (≈ 3.75 µM)	3.1 µg/mL (≈ 3.75 µM)	3.1 µg/mL (≈ 3.75 µM)	6.3 µg/mL (≈ 7.61 µM)	–
CN[C@@H]1[C@H](O[C@@H]2OC[C@@H](O)[C@H](O)[C@H]2O)[C@@H](O)[C@H](O[C@H]2c3cc(C)c(C(=O)N[C@H](C)C(=O)O)c(O)c3-c3c(cc4c(c3O)C(=O)c3cc(OC)cc(O)c3C4=O)[C@@H]2O)O[C@@H]1C [pradimicin A]	–	–	–	–	identical to naturally occurring pradimicin A in spectroscopic data (NMR, IR, UV), HPLC and antifungal activity
